According to patent US20130309695A1, “METHODS OF DIAGNOSING ASTHMA” (UNIVERSITY OF MANITOBA, priority 2010, published 2013):

B1: IL-4: cytokine used to stimulate HASMC (protein, UniProt P05112 25-153, looked up)
Interleukin-4: HKCDITLQEIIKTLNSLTEQKTLCTELTVTDIFAASKNTTEKETFCRAATVLRQFYSHHEKDTRCLGATAQQFHRHKQLIRFLKRLDRNLWGLAGLNSCPVKEANQSTLENFLERLKTIMREKYSKCSS

What was measured:
[1] = system: TNF-α-mediated PTX3 release from HASMC; assay: Effect of MAPK inhibitors on TNF-α-induced PTX3 release from HASMC (ELISA); type: cell-based, human; conditions: 10 μM, 1 h pretreatment, then TNF-α 10 ng/ml for 24 h
Method: (§1) Confluent HASMC (passages 2-5) were growth-arrested by FBS deprivation for 48 h in Ham's F-12 medium containing 5 μg/ml human recombinant insulin, 5 μg/ml human transferrin, 5 ng/ml selenium, and antibiotics (100 U/ml penicillin and 100 μg/ml streptomycin). Cells were then stimulated in fresh FBS-free medium containing graded concentration (0.1, 1, 10, and 100 ng/ml) of human TNF-α, IL-4, PTX3 or medium alone. In some experiments, cells were pretreated for 1 h with U-0126 (10 μM), SB-203580 (10 μM), or SP600125 (50 nM) before stimulation for 24 h with TNF-α (10 ng/ml), at 10 ng/ml. Supernatants were collected at 24 and 48 h, centrifuged at 1,200 rpm for 7 min at 4° C. to remove cellular debris, and stored at −80° C. until analysis by ELISA.
(§2) Immunoreactive PTX3 within the supernatants was quantified using ELISA with matched antibodies according to basic laboratory protocols provided by the manufacturer (R&D Systems Inc., Minneapolis, Minn.). PTX3 protein was quantified in reference to serial dilutions of recombinant standards falling within the linear part of the standard curve for each specific PTX3 measured. Each data point represents readings from a minimum of four independent assays wherein each assay was performed in duplicate.
One of the major downstream pathways for TNF-α-induced cell activation is MAPKs, which play an important role in cells for inflammatory response. Growth-arrested HASMC cells were left unstimulated (medium alone) or treated with 10 ng/ml TNF-α for 24 h, with or without pretreatment for 1 h with inhibitors of JNK (SP600125 50 nM), p42/p44 ERK (U-0126, 10 μM) and p38 MAPK (SB-203580, 10 μM).

[2] = system: PTX3 mRNA expression in human airway smooth muscle cells (HASMC); assay: PTX3 mRNA expression in cultured HASMC (RT-PCR / real-time RT-PCR); type: cell-based
Method: as §1
Confluent HASMC (passages 2-5) were growth-arrested for 48 h in serum-free medium as described above. Cells were then stimulated in fresh FBS-free medium containing human recombinant TNF-α (10 ng/ml), IL-4, or medium alone for 2, 6, and 24 h. Cells were harvested, and total cellular RNA was extracted using TRIzol® method (Invitrogen Life Technologies, Gaithersburg, Md.). The RNA concentration and purity were assessed with optical density measurements. […] Amplified products were analyzed by DNA gel electrophoresis in 2% agarose and visualized by ethidium bromide staining under ultraviolet illumination. […] The PTX3 level was quantified by scanning densitometry and corrected for GAPDH in the same sample. […]
Total cellular RNA extraction and reverse transcription was performed as described above. […] The amount of extracted DNA was quantified by spectrophotometry and expressed as copy number. […] For real-time quantitative PCR, each reaction contained the following: 1× LightCycler® DNA Master SYBR Green I (Roche), 25 mM MgCl2, 0.5 μM each primer, 0.07 μM TaqStart® Ab (Clontech), and 10 μl (1:10 for PTX3 and 1:80 for GAPDH) of cDNA, in a final volume of 25 μl. […]

[3] = system: PTX3 release from HASMC; assay: PTX3 protein release from HASMC into the supernatant (ELISA); type: cell-based, human; conditions: growth-arrested HASMC, 24 h, 0.1, 1, 10 ng/ml
Method: as §1, with “Supernatants were collected at 24 and 48 h, centrifuged at 1,200 rpm for 7 min at 4° C. to remove cellular debris, and stored at −80° C. until analysis by ELISA.” left out
as §2
Assessments were made of the effects of dosage and exposure time of TNF-α on HASMC. […] For both experiments, HASMC were stimulated with 0.1, 1, 10 or 100 ng/ml TNF-α, or medium alone for 24 h after which, PTX3 was measured by ELISA.

Row | Molecule | effect on TNF-α-induced PTX3 release [1] | PTX3 release from HASMC [3] | other results
1 | C[S+]([O-])c1ccc(-c2nc(-c3ccncc3)c(-c3ccc(F)cc3)[nH]2)cc1 (centres unmarked) [SB-203580, 4-(4-fluorophenyl)-2-(4-methyl-sulfinylphenyl)-5-(4′-pyridyl)-1H-imidazole] | no effect | – | –
2 | N#CC(=C(N)Sc1ccccc1N)C(C#N)=C(N)Sc1ccccc1N [U-0126, 1,4-diamino-2,3-dicyano-1,4-bis(2-aminophenylthio)butadiene] | significant inhibition | – | effect on TNF-α-induced PTX3 release ([1]; listed as U0126): abrogate
3 | TNF-α | – | induced the release of PTX3 in a dose-dependent manner | fold increase of PTX3 mRNA compared with unstimulated cells ([2]; 10 ng/mL, 6 h, ratio to GAPDH, mean±SD of three experiments): 30.93±11.25 fold; time of peak PTX3 mRNA response ([2]; 10 ng/ml, stimulated 2, 6 and 24 h, real-time RT-PCR): 6 h
4 | B1 | – | No significant PTX3 release | effect on PTX3 mRNA expression ([2]; 6 h, data not shown): no significant effect
